Reference: patent US20040248837A1, “Methods of treating pulmonary fibrotic disorders” (priority 2002, published 2004)

Columns and labels:
ITGβ6 = ITGβ6 (β6 integrin) gene transcription in lung tissue, RT-PCR; type: in vivo, C57BL/6 mice; details: B6 mice, i.v., 24 hrs; Pam3Cys 25 μg, polyI:C 25 μg, LPS 5 μg, TOG 2 mg, R848 18 μg, ISS 20 μg
Method: Twenty μg ISS was injected intravenously (i.v.) into C57BL/6 mice. At 0 hours, 2 hours, 4 hours, 8 hours, 16 hours, and 24 hours after injection, mice were killed and total RNA was isolated from lung. Transcription levels of IGFβ6 (β6 integrin) was analyzed by reverse transcription-polymerase chain reaction (RT-PCR). TNFα, IDO (2,3-indoleaminedioxygenase) and TGFβ1 were used as controls. […] Transcription of the other subunit of ITGαvβ6 (or αvβ6 integrin), i.e., ITGαv, was also analyzed by RT-PCR.
The long-term effect of ISS on gene expression in lung tissue was investigated. Twenty μg ISS was injected i.v. into C57 BL/6 mice. At 0 days, 1 day, 2 days, 3 days, 4 days, and 5 days post injection, mice were killed and total RNA was isolated from lung tissue. Transcription levels were analyzed by RT-PCR. […] The suppression of TGF-β activity was observed indirectly by the induction of MMP-12 (elastase) gene. Under normal conditions, MMP-12 expression is suppressed by TGF-β. […] In contrast, no change in mRNA levels of MMP-9 (gelatinase) was observed.
The kinetics of suppression of gene expression by ISS was analyzed. […] The level of ITGαv mRNA dropped to 20% of the initial levels within 30 minutes after i.v. injection of ISS.
MyD88 is a component of the TLR signaling pathway. It was shown that down-regulation of ITGβ6 gene transcription by ISS in lung tissue is dependent on MyD88. ISS suppressed ITGβ6 gene transcription in normal control mice, but not in MyD88^−/− mice.
Suppression of ITGβ6 gene transcription in lung tissue by a variety of TLR ligands was examined. Six different TLR ligands (Pam3Cys, 25 μg; polyI:C, 25 μg; LPS, 5 μg; TOG, 2 mg; R848, 18 μg; and ISS, 20 μg) were individually injected i.v. into B6 mice. After 24 hrs, mice were sacrificed and total RNA was isolated form lung tissue, and the level of ITGβ6 gene transcription in lung tissue was analyzed by RT-PCR. Each TLR agonist inhibited ITGβ6 gene transcription in lung tissue.

[1] = tested on: mice repetitively challenged with OVA; details: previous studies in our laboratory; administered 1 day before OVA challenge; cited from earlier work
[2] = tested on: mice repetitively challenged with OVA; assay: Airway responsiveness to MCh in vivo (Penh, whole body plethysmograph); parameters: species or system BALB/c mice; details: pilot experiments
Method: Female BALB/c mice (16 mice/group) (The Jackson Laboratory, Bar Harbor, Me.) were used when they reached 8-10 wk of age. Mice were immunized s.c. on days 0, 7, 14, and 21 with 25 μg of OVA (OVA, grade V; Sigma) adsorbed to 1 mg of alum (Aldrich) in 200 μl normal saline. Intranasal OVA challenges (20 ng/50 μl in PBS) were administered on days 27, 29 and 31 under isoflurane (Vedco, Inc. St Joseph, Mo.) anesthesia. Intranasal OVA challenges were then repeated twice a week for 1, 3, or 6 months (see FIG. 1 for protocol). Age and sex matched control mice were sensitized but not challenged with OVA during the 1, 3, or 6 month study. Mice were sacrificed 24 hours after the final OVA challenge and bronchoalveolar lavage fluid and lungs were analyzed. […]
Airway responsiveness was assessed 24 hrs after the final OVA challenge (after 1, 3, or 6 months of repetitive OVA challenges), using a single chamber whole body plethysmograph obtained from Buxco (Troy, N.Y.), as previously described in this laboratory. […] The enhanced pause (Penh) correlates closely with pulmonary resistance measured by conventional two-chamber plethysmography in ventilated mice. […] The Penh values measured during each 3-min sequence were averaged and are expressed for each MCh concentration as the percentage of baseline Penh values following PBS exposure (Broide et al. supra).

[3] = tested on: mice repetitively challenged with OVA; assay: Quantification of airway remodeling (pilot experiments); type: in vivo, BALB/c mice
Method: (§1) Female BALB/c mice (16 mice/group) (The Jackson Laboratory, Bar Harbor, Me.) were used when they reached 8-10 wk of age. Mice were immunized s.c. on days 0, 7, 14, and 21 with 25 μg of OVA (OVA, grade V; Sigma) adsorbed to 1 mg of alum (Aldrich) in 200 μl normal saline. Intranasal OVA challenges (20 ng/50 μl in PBS) were administered on days 27, 29 and 31 under isoflurane (Vedco, Inc. St Joseph, Mo.) anesthesia. Intranasal OVA challenges were then repeated twice a week for 1, 3, or 6 months (see FIG. 1 for protocol). Age and sex matched control mice were sensitized but not challenged with OVA during the 1, 3, or 6 month study. Mice were sacrificed 24 hours after the final OVA challenge and bronchoalveolar lavage fluid and lungs were analyzed.
Different groups of mice (16 mice/group) were administered i.p. endotoxin-free (<1 ng/mg DNA) phosphorothioate ISS-ODN (5′-[…]-3′; SEQ ID NO:01) (Trilink, San Diego, Calif.) (100 μg in 100 μl of sterile, endotoxin-free PBS), M-ODN (5′-[…]-3′; SEQ ID NO:02) which lacks the CpG motif present in ISS, or diluent control starting 1 day before the first intranasal OVA challenge on day 27, and then continuing every other week 1 day before intranasal challenges for 1, 3, or 6 months. […]

[4] = tested on: mice repetitively challenged with OVA; assay: BAL eosinophil counts; type: in vivo, BALB/c mice; details: pilot experiments
Method: as §1
Throughout the Examples, therapeutic nucleic acids are referred to as “ISS.” ISS or diluent control was administered intraperitoneally (i.p.) starting 1 day before the first intranasal OVA challenge on day 26, and then continued every other week 1 day before intranasal challenges for 1, 3, or 6 months (see FIG. 1). All animal experimental protocols were approved by the University of California, San Diego Animal Subjects Committees. […]

Compound: Nc1nc2c(sc(=O)n2[C@@H]2O[C@H](CO)[C@@H](O)[C@H]2O)c(=O)[nH]1 [TOG, 7-thia-8-oxo-guanosine]
- ITGβ6 gene transcription in lung tissue (ITGβ6): inhibited

Compound: M-ODN: 5′-TGACTGTGAAGGTTGGAGATGA-3′ (SEQ ID NO:02), which lacks the CpG motif present in ISS (DNA, backbone and methylation of C not given here)
- OVA induced airway hyperreactivity [1]: not
- OVA induced airway responsiveness [2]: did not inhibit
- features of airway remodeling [3]: did not inhibit
- OVA induced eosinophilic inflammation [4]: did not inhibit

Compound: polyI:C
- ITGβ6 gene transcription in lung tissue (ITGβ6): inhibited

Compound: tripalmitoyl-S-glyceryl cysteine [Pam3Cys]
- ITGβ6 gene transcription in lung tissue (ITGβ6): inhibited
